This note sets out measurements from US4067986A, “Novel penicillanic acid” (Gist-Brocades N.V., priority 1974, dated 1978).

In brackets after ≈: the same amount, converted by molar mass. Bounds are passed on as bounds.

Type in all cases: cell-based
One test concerns Proteus mirabilis H 3. The test is described as follows: MIC, agar serial dilution test. Conditions: H3.
The test system of test [1] is Haemophilus suis A 2096. Nature of the test: MIC, agar serial dilution test. The settings on record: A2096.
The test system of the next test is Proteus rettgeri A 821. Nature of the test: MIC, agar serial dilution test. Conditions: Providencia rettgeri, A821.
In a further test the test system is Proteus mirabilis A 1200. The test is described as follows: MIC, agar serial dilution test. The settings on record: A1200.
Another test has as its system Proteus mirabilis L 93. The test is described as follows: MIC, agar serial dilution test. Conditions: L93.
Test [2] deals with Pseudomonas aeruginosa 2396. Nature of the test: MIC, agar serial dilution test.
The subject of test [3] is Pseudomonas aeruginosa A 1058. Nature of the test: MIC, agar serial dilution test. The settings on record: A1058.
In test [4] the test system is Streptococcus haemolyticus A 1088. The test is described as follows: MIC, agar serial dilution test. The settings on record: A1088.
Test [5] concerns Diplococcus pneumoniae L 54. The test is described as follows: MIC, agar serial dilution test. Conditions: Streptococcus pneumoniae, L54.
Test [6] deals with Pseudomonas aeruginosa H 10. The test is described as follows: MIC, agar serial dilution test. The settings on record: H10.
In test [7] the test system is Salmonella typhimurium R 172. The test is described as follows: MIC, agar serial dilution test. Conditions: Salmonella enterica.
The test system of test [8] is Streptococcus faecalis L 80. The test is described as follows: MIC, agar serial dilution test. Conditions: Enterococcus faecalis, L80.
Test [9] has as its system Pasteurella multocida A 723. The test is described as follows: MIC, agar serial dilution test. The settings on record: A723.
In test [10] the test system is Klebsiella pneumoniae A 809. The test is described as follows: MIC, agar serial dilution test. The settings on record: A809.
The test system of test [11] is Haemophilus suis A 2096. Nature of the test: MIC, micro serial dilution test. The settings on record: A2096, micro serial dilution test (brackets).

The term MIC denotes the lowest concentration found to suppress growth. Lower therefore signals inhibition by little substance. Take `CC1(C)S[C@@H]2[C@H](NC(=O)[C@H](N)c3ccccc3)C(=O)N2[C@H]1C(=O)O` [ampicillin]: the MIC in the test on Proteus mirabilis H 3 was 3 µg/mL (≈ 8.59 µM); in the test on Haemophilus suis A 2096 [1] it was 0.15 µg/mL (≈ 0.429 µM); in the test with Proteus rettgeri A 821, 3 µg/mL (≈ 8.59 µM); in the test on Proteus mirabilis A 1200, 3 µg/mL (≈ 8.59 µM); in the test with Proteus mirabilis L 93 it was 3 µg/mL (≈ 8.59 µM); in test [2], 50 µg/mL (≈ 143 µM). The MIC in test [3] was 50 µg/mL (≈ 143 µM); in test [4], 0.75 µg/mL (≈ 2.15 µM); in [5], 0.05 µg/mL (≈ 0.143 µM); in test [6], above 100 µg/mL; in test [7], 3 µg/mL (≈ 8.59 µM).
With `CC1(C)S[C@@H]2[C@H](NC(=O)C(C(=O)O)c3ccccc3)C(=O)N2[C@H]1C(=O)O` (stereo partly drawn) [carbenicillin], the minimum inhibitory concentration (MIC) is 0.3 µg/mL (≈ 0.793 µM) with Proteus rettgeri A 821; 25 µg/mL (≈ 66.1 µM) in [8]; 0.5 µg/mL (≈ 1.32 µM) in the test with Proteus mirabilis L 93; 0.2 µg/mL (≈ 0.529 µM) in [9]; 37 µg/mL (≈ 97.8 µM) in test [3]; above 100 µg/mL in test [10]. The MIC was found to be 0.1 µg/mL (≈ 0.264 µM) in test [4], 0.75 µg/mL (≈ 1.98 µM) in [5], 0.2 µg/mL (≈ 0.529 µM) in the test on Haemophilus suis A 2096 [11] and 6 µg/mL (≈ 15.9 µM) in test [7].
